The source of these data is article PMC1192819, “Molecular cloning and characterization of a nuclear androgen receptor activated by 11-ketotestosterone” (Reproductive biology and endocrinology : RB&E, 2005).

Test [1] deals with spiggin mRNA in adult female stickleback kidney. Nature of the test: Induction of spiggin mRNA in stickleback kidney after steroid implants (slot blot). As to conditions: females. The format is in vivo, three-spined stickleback (Gasterosteus aculeatus). The method, then: The fish were anesthetized with 0.1% (v/v) 2-phenoxyethanol (Sigma, St. Louis, MO, USA) and implanted intraperitoneally with Silclear silicone tubing (10-mm length, 0.6-mm inner diameter, 1.2-mm outer diameter) containing steroids dissolved in cocoa butter. […] KA was used as this steroid is converted into KT by the fish. Tubes containing cocoa butter alone were used as controls. Following implantation the fish were maintained in 50-liter aquaria containing brackish water (0.5% salinity) at 20°C under LD 16:8 h. At sampling fish were decapitated and the kidneys were excised, frozen using liquid nitrogen, and stored at -70°C. A number of experiments were performed as follows. Spiggin mRNA was measured in post-breeding females that were dissected 2 days following implantation of tubes. Cytosolic androgen-receptors were measured in females and in castrated males. Males were castrated under anesthesia as above, by making a 1.5 mm long incision into the abdominal cavity on each side and removing the testes using forceps. The females and the castrated males were implanted with control and high dose tubes and dissected after 6 days. AR mRNA was studied in females implanted for 12 h, 2 and 16 days (separate experiments) with control and high dose tubes and in males castrated as above and implanted for 10 days with control tubes and high doses of KA or E2.
Total RNA was extracted using Tri Reagent™ (Sigma). Aliquots of 10 μg of total RNA were mixed with denaturing solution (6 × SSC, 7% (v/v) formaldehyde) and transferred onto a nylon membrane (Amersham Pharmacia Biotech) using a Minifold II Slot Blot Apparatus (Schleicher and Schuell, Keene, NH, USA). Membranes were probed using either a randomly primed [α-^32P]-dCTP radiolabelled AR cDNA fragment (918 base pairs) that was isolated by reverse transcriptase-polymerase chain reaction and sequenced as above, or a randomly primed [α-^32P]-dCTP radiolabelled spiggin-α cDNA. Hybridizations were performed at 65°C overnight (6 × SCC, 0.1% (w/v) SDS, 100 μg ml^-1 tRNA, and 5 × Denhardt's solution). The membranes were washed for 2 × 30 minutes at 42°C and 65°C in 0.1 × SCC, 0.1% (w/v) SDS whereafter Hyperfilm™-MP film was exposed at -70°C. The films were visualized using Curix 60 Film Developer. Following AR and spiggin mRNA determination the membranes were stripped and analyzed for 18S rRNA using a cDNA fragment as internal control. Each AR or spiggin transcript was then semi-quantified using Quantity ONE 4.2.3 (Bio-Rad, Laboratories, Inc, Hercules, CA, USA) in relation to its internal 18S transcript.

A further test addresses T1, human AR (Homo sapiens, UniProt P10275).
T1 construct: expressed in transfected cells; host or cells: ZFL (zebrafish liver) cells
T1 sequence (P10275 1-920): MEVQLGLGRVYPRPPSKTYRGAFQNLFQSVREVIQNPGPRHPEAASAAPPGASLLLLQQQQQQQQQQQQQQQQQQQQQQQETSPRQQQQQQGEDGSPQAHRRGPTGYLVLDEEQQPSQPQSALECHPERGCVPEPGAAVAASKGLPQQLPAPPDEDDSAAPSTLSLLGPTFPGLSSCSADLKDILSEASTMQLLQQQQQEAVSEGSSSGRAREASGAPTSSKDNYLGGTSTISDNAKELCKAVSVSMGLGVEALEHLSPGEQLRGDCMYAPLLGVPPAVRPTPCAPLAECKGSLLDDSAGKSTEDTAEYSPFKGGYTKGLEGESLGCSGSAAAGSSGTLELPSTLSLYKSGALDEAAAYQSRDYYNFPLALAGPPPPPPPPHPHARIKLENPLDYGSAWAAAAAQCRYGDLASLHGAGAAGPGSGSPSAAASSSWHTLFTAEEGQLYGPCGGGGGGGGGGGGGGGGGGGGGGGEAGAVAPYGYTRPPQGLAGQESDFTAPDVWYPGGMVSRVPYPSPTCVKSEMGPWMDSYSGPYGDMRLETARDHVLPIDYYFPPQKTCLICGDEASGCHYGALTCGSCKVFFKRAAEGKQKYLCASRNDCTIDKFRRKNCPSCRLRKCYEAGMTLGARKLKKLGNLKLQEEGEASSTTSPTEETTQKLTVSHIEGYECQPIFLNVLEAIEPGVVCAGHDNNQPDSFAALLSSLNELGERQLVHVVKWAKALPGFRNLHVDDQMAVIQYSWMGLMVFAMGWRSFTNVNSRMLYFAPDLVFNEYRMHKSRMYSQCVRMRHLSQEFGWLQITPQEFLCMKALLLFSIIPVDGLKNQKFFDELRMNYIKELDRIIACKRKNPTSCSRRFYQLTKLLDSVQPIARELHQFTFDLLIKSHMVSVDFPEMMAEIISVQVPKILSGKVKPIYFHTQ
Nature of the test: ARE-luciferase trans-activation assay, human AR in transfected ZFL cells. The format is cell-based. As to conditions: 10^-8 M of each steroid.

Description for human AR: Two liver epithelial cell lines were used to test receptor activity. HepG2 cells (ATCC, Manassas, VA) were maintained in DMEM supplemented with 10% FCS and non-essential amino acids. ZFL cells (ATCC) were maintained in 50% L-15 Leibovitz, 15% H-12 Ham and 35% DMEM supplemented with 10% FCS (Gibco, Paisley, Scotland, UK) and 50 ng ml-1 EGF (Sigma). Cells were cultured at 37°C (HepG2) or 28°C (ZFL) in 5% CO2. The transfection experiments were initiated by replacing the tissue culture medium with fresh phenol-free medium supplemented with charcoal stripped FCS and the cells were seeded on 24-well plates. Transfections were performed at 90–95% confluence using 1,5 μl Lipofectamine 2000 (Invitrogen, Carlsbad, CA, USA) and 0,6 μg DNA per well. […]
After 16 h the transfection medium was replaced with fresh phenol-free medium, supplemented with charcoal stripped FCS, containing different steroid hormones. The cells were exposed to the hormones for 40 h and luciferase levels were detected using the Dual Luciferase Assay kit (Promega) in a TD 20/20 Luminometer (Turner Designs, Sunnyvale, CA). […]

`C[C@]12CC(=O)[C@H]3[C@@H](CCC4=CC(=O)CC[C@@]43C)[C@@H]1CC[C@@H]2O` [KT, 11-ketotestosterone]: the “potency in spiggin induction relative to DHT” value in test [1] (1 μg implant dose) was determined as 23 times. The “effectiveness at increasing kidney spiggin mRNA levels relative to T” value in test [1] (25 μg implant dose) is reported as 50 times. The “activation of human AR compared among androgens” value on human AR is reported as “equally activated”.
